Measurements from US8703125B2, “Modulation of the Vps10p-domain receptor family for the treatment of mental and behavioural disorders” (H. Lundbeck A/S, priority 2008, dated 2014).
Entries after “also recorded” stand apart in the source; their conditions may differ. Values belong to the molecule of their own block, whether it stands above or below them.

Experiments:
[1] = test system: Sortilin −/− hippocampal CA1 synapses; experiment: NMDA receptor-dependent LTD in Sortilin −/− hippocampal slices (f-EPSP recording); assay type: cell-based, mouse; conditions: 40 ng/ml for at least 1 h before recording and throughout, LFS 1 Hz, 15 min
Procedure: FIG. 3: Impaired NMDA receptor-dependent LTD in Sortilin −/− and SorCS1 −/− mice. A, lack of LTD in sortilin −/− hippocampal CA1 synapses by the application of LFS (1 Hz, 15 min) to the Schaffer collaterals. In wt hippocampal CA1 synapses a LFS induces synaptic depression. B, rescue of NMDA receptor-dependent LTD in Sortilin −/− hippocampal CA1 synapses by cleavage-resistant proBDNF. […] LFS (1 Hz, 15 min) was applied to the Schaffer collaterals. In Sortilin −/− hippocampal slices incubated with control vehicle the LTD was still impaired. C, a similar experiment showing rescue of NMDA receptor-dependent LTD in sortilin −/− hippocampal CA1 synapses by 40 ng/ml purified soluble Sortilin. D, a similar experiment showing lack of LTD in SorCS1 −/− hippocampal CA1 synapses. […]
SorCS2 −/− mice were backcrossed onto a C57BL/6 background for more than ten generations and wild type C57BL/6 mice were used as control. […] After a recovery period of at least two h, the slices were moved to an interface chamber exposed to a humidified atmosphere of 95% O2 and 5% CO2 and we recorded field Exitatory Post-Synaptic Potentials (f-EPSP) using an Axoclamp-2B amplifier (Axon Instruments) with an artificial cerebral spinal fluid (ACSF; in mM: 126 NaCl, 2.5 KCl, 1.25 NaH2PO4, 2.5 CaCl2, 1.3 MgCl2, 10 D-glucose)-filled glass microelectrode (10-15 MΩ) positioned in the stratum radiatum of hippocampal area CA1. […]

[2] = test system: patient suffering from a mental and behavioural disorder; experiment: Passive delivery device implanted into the brain of a patient with a mental and behavioural disorder (Examples 18, 19); assay type: in vivo, human; conditions: device for passive delivery surgically implanted into the brain
From the text: (§1) The soluble domain of human Sortilin is expressed recombinantly at a large scale in a mammalian cell culture and is subsequently purified by for example immunoaffinity chromatography. A device for passive delivery containing purified soluble Sortilin is surgically implanted into the brain of a patient suffering from a mental and behavioural disorder. Good effect is obtained and the patient is set on lifelong treatment.
as §1, with “chromatography. Similarly, proBDNF is expressed and purified at a large scale. Soluble Sortilin and proBDNF is incubated together to form a preformed Sortilin:proBDNF complex.” for “chromatography.”, “preformed Sortilin:proBDNF” for “soluble Sortilin”

[3] = test system: granule cells of the dentate gyrus; experiment: GABAergic activity (sIPSCs), whole-cell patch-clamp in acute brain slices; assay type: cell-based, mouse; conditions: for GABAergic activity (in words): Sortilin −/− mouse brain slices
Procedure: FIG. 8: Neuronal GABA activity is increased in Sortilin and SorCS2 −/− mice, and can be rescued by BDNF. A, model describing how dentate gyrus granule cells are under powerful inhibitory control by GABAergic basket cells. The basket cell excitability is in turn depressed by BDNF released from the granule cells (Holm et al. Submitted, 2008) B, the GABAergic activity was assessed by electrophysiological recordings from single neurons in an in vitro mouse brain slice preparation (P16-P20). In each experimental condition, the frequency of spontaneous inhibitory postsynaptic currents (sIPSCs) was measured in Hz. In control mice (wildtype, WT) the GABAergic activity was 2.96±0.53 Hz (n=33 cells). In Sortilin −/− (Sortilin KO) mice, this activity increased to 6.15±0.80 Hz (n=25 cells). In rescue experiments, exogenous BDNF (20 ng/ml) reversed the GABA activity of Sortilin KO mice back to WT levels, reaching 2.66±1.4 Hz (n=3 cells). For comparison, the GABAergic activity in SorCS2 −/− (SorCS2 KO) mice was 5.68±0.7 Hz (n=6), highlighting the importance of Vps10p proteins in these inhibitory cell functions. Error bars indicate S.E.M.
3-4 week wildtype and Sortilin deficient mice were examined for neurophysiological in vitro correlates of anxiety/depression like behavior. In fresh 350 μm thick brain slices, inhibitory GABAergic synaptic input to hippocampal granule cells were quantified in living tissues. Electrophysiological patch-clamp recordings were carried out from acute brain slices from WT, Sortilin and Sorcs2 knockout (KO) mice. Following deep isoflurane anesthesia, male mice were sacrifized and the brain was carefully dissected out and cooled. 350 um thick brain slices were cut on a Vibratome 3000 Plus, and the tissue rested in O2/CO2 bubbled Ringer solution for at least 1 hour before experimentation (Drasbek and Jensen 2006). Whole-cell patch-clamp recordings were carried out at 33° C. from the soma of identified granule cells of the dentate gyrus (Jensen and Mody 2001). Under conditions of blocked glutamatergic excitation, GABAergic activity was apparent as spontaneous inhibitory postsynaptic currents (sIPSCs) that could be blocked by the GABAA receptor antagonist SR95531 (100 μM). For each cell, the frequency of sIPSCs was analyzed and frequencies were pooled within each experimental group. In rescue experiments, BDNF (brain-derived neurotrophic factor, 20 ng/ml) was perfused to the brain slice for at least 5 min and the GABAergic activity was assessed. […] Subsequently, the pathophysiological neuronal activity was restored in Sortilin deficient mouse brain slices by administering exogenous brain-derived neurotrophic factor (BDNF 20 ng/ml) to the tissue bathing solution (FIG. 8B).

NMDA receptor-dependent LTD [1]: rescued
NMDA receptor-dependent LTD ([1]; listed as recombinant soluble Sortilin): rescued
Molecule: soluble Sortilin: purified soluble Sortilin, the luminal (Vps10p-domain) part of the receptor
effect of treatment in the patient [2]: Good effect

Molecule: Br.COc1ccc(-c2ccc(=N)n(CCCC(=O)O)n2)cc1 [SR95531, reference compound]
spontaneous inhibitory postsynaptic currents (sIPSCs) ([3]; 100 μM, blocked glutamatergic excitation): blocked

B1: mature BDNF: mature brain-derived neurotrophic factor (protein)
chain: HSDPARRGELSVCDSISEWVTAADKKTAVDMSGGTVTVLEKVPVSKGQLKQYFYETKCNPMGYTKEGCRGIDKRHWNSQCRTTQSYVRALTMDSKKRIGWRFIRIDTSCVCTLTIKRGR
frequency of spontaneous inhibitory postsynaptic currents (sIPSCs) ([3]; Sortilin KO mouse brain slices, 20 ng/ml, n=3 cells): 2.66±1.4 Hz
GABAergic activity (in words) ([3]; 20 ng/ml): restored
GABAergic activity (in words) ([3]; 20 ng/ml, listed as exogenous BDNF): normalizes; also recorded: reversed
